Reference: US9850216B2 (H. LEE MOFFITT CANCER CENTER AND RESEARCH INSTITUTE, INC., priority 2013, dated 2017)
“And” between values parts separate entries of the source, which are not always exact repeats. Equal entries are not always repeated. Structures can show the parent of a compound that is named as a salt. Where two headings read alike, the source gives them in different places.

Key:
[1] = system: LAPC4 cells; test: Cell growth, LAPC4; format: cell-based, human
From the text: Selected compounds from the library 9 were chosen to evaluate the effects of ACK1 inhibition in LAPC4 human prostate cancer cells with inhibition of cell growth as a read out. […] Based on the findings from cell culture data, enantiomers of 9b were synthesized to understand the ACK1 inhibitory activities of individual stereoisomers. […] The synthesis of (R)-9b and (S)-9b are shown in the Scheme 4 and other examples of enantiomerically pure compounds (not reported here) were also synthesized using the protocols in the Scheme 4.
Three distinct human prostate cancer derived cell lines, LNCaP, LAPC4 and VCaP were either DMSO treated or treated with 1, 2.5, 5, 7.5 and 10 μM of inhibitors, AIM-100, (R)-9b and (S)-9b for 36 hrs and the number of viable cells were counted by trypan blue exclusion assay.

[2] = target: T1, ACK1 (Homo sapiens, UniProt Q07912); test: ACK1 ELISA: phosphorylation of AKT-derived peptide; format: biochemical
[3] = target: T1, ACK1; test: 32P Hotspot assay (Reaction Biology), ACK1 IC50; format: biochemical
Protocol: 8 compounds were tested against […], ACK1, Src and ALK in various combinations. […] Reactions were carried out at 10 μM ATP.

[4] = system: AR; test: AR protein levels in androgen-deprived prostate cancer cells, immunoblotting; format: cell-based, human; conditions: immunoblotting (FIG. 2)
Protocol: Transcriptional regulation of the AR gene itself is a paradigm that merits thorough investigation. […] Whether AR utilizes ACK1 to facilitate its transcriptional co-activator function is not known. […] Cells were also treated with ACK1-specific small molecule inhibitors, DZ1-067 or AIM-100.

[5] = system: AR; test: AR mRNA by real time PCR in androgen-deprived prostate cancer cells; format: cell-based, human; conditions: overnight treatment (FIG. 3a, b)
From the text: Total RNA was isolated followed by qPCR with AR primers. VCaP, *p=0.022; LNCaP, *p=0.042, **p=0.047. […] Total RNA was isolated followed by qPCR with PSA primers.

[6] = 10 μM, Table 2, library 9, read-out: % Inhibition @ 10 μM (ELISA)
[7] = 32P hotspot / enzymatic assay, read-out: ACK1 IC50
[8] = Table 2, read-out: IC50 (32P Hotspot assay)
[9] = 10 μM, Table 1, replicate values listed
[10] = 10 μM, Table 1, replicate values listed, read-out: % Inhibition at 10 μM (ELISA)
[11] = Table 1, unit inferred, (RB) = Reaction Biology, replicates listed, read-out: IC50
[12] = Table 4, 10-dose, 10 μM ATP, read-out: Compound IC50 (M), ACK1
[13] = Table 3, 10-dose, 3-fold dilution from 10 μM, 10 μM ATP, read-out: Compound IC50* (M): ACK1
[14] = 10 μM, Table 1, replicate values listed, hydrochloride
[15] = Table 1, nM, (RB) = Reaction Biology, replicates listed, read-out: IC50

T1 sequence (Q07912 whole entry): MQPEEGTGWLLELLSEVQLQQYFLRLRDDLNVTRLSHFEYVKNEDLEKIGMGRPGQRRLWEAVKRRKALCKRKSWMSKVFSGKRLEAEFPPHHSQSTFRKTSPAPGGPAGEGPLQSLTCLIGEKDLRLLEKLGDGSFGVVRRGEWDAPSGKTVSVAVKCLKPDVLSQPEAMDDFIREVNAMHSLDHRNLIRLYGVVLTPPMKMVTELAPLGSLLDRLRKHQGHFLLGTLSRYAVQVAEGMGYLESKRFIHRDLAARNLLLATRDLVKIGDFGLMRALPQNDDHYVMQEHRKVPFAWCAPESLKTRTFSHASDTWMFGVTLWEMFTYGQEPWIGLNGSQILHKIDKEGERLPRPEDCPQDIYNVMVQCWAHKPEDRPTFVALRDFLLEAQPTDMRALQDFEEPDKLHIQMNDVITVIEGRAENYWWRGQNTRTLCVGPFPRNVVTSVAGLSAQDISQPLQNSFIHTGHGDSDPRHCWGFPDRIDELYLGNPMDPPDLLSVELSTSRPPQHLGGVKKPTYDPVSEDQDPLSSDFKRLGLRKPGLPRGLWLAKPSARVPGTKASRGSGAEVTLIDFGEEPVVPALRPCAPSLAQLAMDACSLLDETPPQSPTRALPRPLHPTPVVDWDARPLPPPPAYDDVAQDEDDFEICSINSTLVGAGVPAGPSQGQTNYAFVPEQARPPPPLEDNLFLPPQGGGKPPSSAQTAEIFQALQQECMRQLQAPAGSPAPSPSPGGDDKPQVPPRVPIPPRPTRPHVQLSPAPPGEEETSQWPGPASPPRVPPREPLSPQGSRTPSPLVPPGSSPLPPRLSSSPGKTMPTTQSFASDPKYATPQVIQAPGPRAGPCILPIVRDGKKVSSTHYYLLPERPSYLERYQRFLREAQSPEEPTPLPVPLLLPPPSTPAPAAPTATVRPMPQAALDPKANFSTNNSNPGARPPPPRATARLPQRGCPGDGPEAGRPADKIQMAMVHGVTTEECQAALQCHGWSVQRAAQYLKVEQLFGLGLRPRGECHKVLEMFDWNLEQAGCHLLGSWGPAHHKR

SMILES | % Inhibition at 10 μM (ELISA) [2, 9] | inhibition at 10 µM [2, 10] [%] | IC50 [3, 11] | also measured
CN1CCN(c2ccc(Nc3ncc(Cl)c(NCC4CCCO4)n3)cc2)CC1 (stereo not shown) [Compound 9b] |  |  |  | cellular potency, ACK1 inhibition in LAPC4 cells with cell growth as read out [1]: promising ACK1 inhibitory activities in cellular assays; inhibition at 10 µM [2, 6]: 90.5 ± 0.7%
O=C(O)C1CCN(c2ccc(Nc3ncc(Cl)c(NCC4CCCO4)n3)cc2)CC1 (stereo not shown) [Compound 9e] |  |  |  | inhibition at 10 µM [2, 6]: 93 ± 5.1%; IC50 [3, 7]: 8.5e-08 M
Clc1cnc(Nc2ccc(C3CCNCC3)cc2)nc1NCC1CCCO1 (stereo not shown) [Compound 9f] |  |  |  | inhibition at 10 µM [2, 6]: 79.5 ± 0.7%; IC50 [3, 7]: 2.31e-07 M
Brc1cnc(Nc2ccc(C3CCNCC3)cc2)nc1NCC1CCCO1 (stereo not shown) [Compound 9k] |  |  |  | inhibition at 10 µM [2, 6]: 84.5 ± 0.7%; IC50 [3, 8]: 1.69e-07 M
O=C(Nc1c(F)cccc1Cl)c1cnc(Nc2ccc(N3CCNCC3)cc2)nc1NCC1CCCO1 (stereo not shown) [Compound 9m] |  |  |  | cellular potency, ACK1 inhibition in LAPC4 cells with cell growth as read out [1]: did not display the expected cellular potency; inhibition at 10 µM ([2]; read-out: % Inhibition @ 10 μM (ELISA), 10 μM, Table 2, library 9): 89.5 ± 2.1%
O=C(Nc1c(F)cccc1Cl)c1cnc(Nc2ccc(N3CCOCC3)cc2)nc1NCC1CCCO1 (stereo not shown) [Compound 9n] |  |  |  | cellular potency, ACK1 inhibition in LAPC4 cells with cell growth as read out [1]: did not display the expected cellular potency; inhibition at 10 µM [2, 6]: 82 ± 7.7%; IC50 [3, 8]: 4.77e-08 M
O=C(Nc1c(F)cccc1Cl)c1cnc(Nc2ccc(N3CCC(C(=O)O)CC3)cc2)nc1NCC1CCCO1 (stereo not shown) [Compound 9s] |  |  |  | inhibition at 10 µM [2, 6]: 98%; IC50 [3, 7]: 3.4e-08 M and 3.2e-08 M; IC50 [3, 8]: 3.42e-08 M
O=C(O)C1CCN(c2ccc(Nc3ncc(Cl)c(NC[C@H]4CCCO4)n3)cc2)CC1 [DZ1-072, (R)-1-(4-(5-chloro-4-((tetrahydrofuran-2-yl)methylamino)pyrimidin-2-ylamino)phenyl)piperidine-4-carboxylic acid] | 95% | 96 | 9.16e-08 M | 
O=C(O)C1CCN(c2ccc(Nc3ncc(Cl)c(NC[C@@H]4CCCO4)n3)cc2)CC1 [DZ1-082, (S)-1-(4-(5-chloro-4-((tetrahydrofuran-2-yl)methylamino)pyrimidin-2-ylamino)phenyl)piperidine-4-carboxylic acid] | 94% | 92 | 5.47e-08 M | 
Cl.O=C(Nc1c(F)cccc1Cl)c1cnc(Nc2ccc(C3CCNCC3)cc2)nc1NCC1CCCO1 (stereo not shown) [DZ1-089, N-(2-chloro-6-fluorophenyl)-2-(4-(piperidin-4-yl)phenylamino)-4-((tetrahydrofuran-2-yl)methylamino)pyrimidine-5-carboxamide] | 97, 97% |  | 5.33e-08 M | 
Brc1cnc(Nc2ccc(N3CCOCC3)cc2)nc1NCC1CCCO1.Cl (stereo not shown) [DZ1-091, 5-bromo-N2-(4-morpholinophenyl)-N4-((tetrahydrofuran-2-yl)methyl)pyrimidine-2,4-diamine] | 90% | 88 | 1.06e-07 M | 
Cl.O=C(Nc1c(F)cccc1Cl)c1cnc(Nc2ccc(N3CCC(C(=O)O)CC3)cc2)nc1NCC1CCCO1 (stereo not shown) [DZ1-096] | 98, 98% | 98 | 3.63e-08 M and 3.22e-08 M | IC50 [3, 12]: 3.22e-08 M
CN1CCN(c2ccc(Nc3ncc(C(=O)Nc4c(F)cccc4Cl)c(NCC4CCCO4)n3)cc2)CC1 (stereo not shown) [DZ1-114, N-(2-chloro-6-fluorophenyl)-2-(4-(4-methylpiperazin-1-yl)phenylamino)-4-((tetrahydrofuran-2-yl)methylamino)pyrimidine-5-carboxamide] | 95% | 99 |  | IC50 [3, 13]: 4.83e-08 M
Oc1ccc(Nc2ncc(Cl)c(NCC3CCCO3)n2)cc1 (stereo not shown) [DZ1-120, 4-(5-chloro-4-((tetrahydrofuran-2-yl)methylamino)pyrimidin-2-ylamino)phenol] | 58% | 73 | 1.63e-07 M | IC50 [3, 13]: 1.63e-07 M
CN1CCN(c2ccc(Nc3ncc(Br)c(NCC4CCCO4)n3)cc2)CC1 (stereo not shown) [DZ1-122, 5-bromo-N2-(4-(4-methylpiperazin-1-yl)phenyl)-N4-((tetrahydrofuran-2-yl)methyl)pyrimidine-2,4-diamine] | 91% | 95 | 4.8e-08 M | 
CN1CCN(c2ccc(Nc3ncc(Cl)c(NCC4CCCO4)n3)cc2)CC1 (stereo not shown) [MH1-022-5, 5-chloro-N2-(4-(4-methylpiperazin-1-yl)phenyl)-N4-((tetrahydrofuran-2-yl)methyl)pyrimidine-2,4-diamine] | 91% | 90 |  | IC50 [3, 12]: 5.44e-08 M
CCCS(=O)(=O)Nc1ccc(F)c(C(=O)c2c[nH]c3ncc(-c4ccc(Cl)cc4)cc23)c1F [PLX4032] |  |  |  | AR protein levels [4]: little effect on AR expression; AR mRNA levels [5]: no significant change
Cl.Oc1ccc(Nc2ncc(Br)c(NCC3CCCO3)n2)cc1 (stereo not shown) [SK1-028, 4-(5-Bromo-4-((tetrahydrofuran-2-yl)methylamino)pyrimidin-2-ylamino)phenol hydrochloride] |  |  |  | % Inhibition at 10 μM (ELISA) [2, 14]: 59% and 81% and 85% and 65% and 67%; IC50 [3, 13]: 1.64e-07 M
Cc1cc(Nc2ncc(Br)c(NCC3CCCO3)n2)ccc1O.Cl (stereo not shown) [SK1-040, 4-(5-bromo-4-((tetrahydrofuran-2-yl)methylamino)pyrimidin-2-ylamino)-2-methylphenol] | 90% and 61% and 56% and 57% |  |  | IC50 [3, 15]: 9.95e-08 M
Cl.Oc1ccc(Nc2ncc(Br)c(NCC3CCCO3)n2)cc1F (stereo not shown) [SK1-044, 4-(5-bromo-4-((tetrahydrofuran-2-yl)methylamino)pyrimidin-2-ylamino)-2-fluorophenol] | 89% and 63% and 28% and 38% |  |  | IC50 [3, 15]: 2.99e-07 M
O=C(Nc1c(F)cccc1Cl)c1cnc(Nc2ccc(O)cc2)nc1NCC1CCCO1 (stereo not shown) [YL7-104-2, N-(2-chloro-6-fluorophenyl)-2-(4-hydroxyphenylamino)-4-((tetrahydrofuran-2-yl)methylamino)pyrimidine-5-carboxamide] | 76% | 85 |  | IC50 [3, 15]: 5.44e-08 M
CCOC(=O)C1CCN(c2ccc(Nc3ncc(Cl)c(NCC4CCCO4)n3)cc2)CC1.Cl (stereo not shown) [YL8-047, Ethyl 1-(4-(5-chloro-4-((tetrahydrofuran-2-yl)methylamino)pyrimidin-2-ylamino)phenyl)piperidine-4-carboxylate hydrochloride] |  | 65 |  | % Inhibition at 10 μM (ELISA) [2, 14]: 67% and 69%; IC50 [3, 15]: 1.08e-07 M
O=C(Nc1c(F)cccc1Cl)c1cnc(Nc2ccc(N3CCNCC3)cc2)nc1NCC1CCCO1 (stereo not shown) [YL9-162, N-(2-chloro-6-fluorophenyl)-2-(4-(piperazin-1-yl)phenylamino)-4-((tetrahydrofuran-2-yl)methylamino)pyrimidine-5-carboxamide TFA salt] |  |  | 3.32e-08 M | % Inhibition at 10 μM (ELISA) ([2]; 10 μM, Table 1, replicate values listed, TFA salt): 88%; inhibition at 10 µM ([2]; read-out: % Inhibition at 10 μM (ELISA), 10 μM, Table 1, replicate values listed): 91%
O=C(O)CCC(=O)N1CCN(c2ccc(Nc3ncc(C(=O)Nc4c(F)cccc4Cl)c(NCC4CCCO4)n3)cc2)CC1 (stereo not shown) [YL9-163, 4-(4-(4-(5-(2-Chloro-6-fluorophenylcarbamoyl)-4-((tetrahydrofuran-2-yl)methylamino)pyrimidin-2-ylamino)phenyl)piperazin-1-yl)-4-oxobutanoic acid] | 93% | 85 |  | IC50 [3, 13]: 2.84e-08 M
